How the values were obtained:
[1] = molecular target: Transporter, Norepinephrine (NET) (Homo sapiens, UniProt P23975); experiment: Radioligand binding assay, Norepinephrine transporter
Description: (§1) . Table 1 provides data produced via a receptor binding assay and IC50 and Ki determination. […] In addition, the compound of formula (Ia) has a potent DAT inhibition, which is indicative of dopaminergic uptake inhibition and increased DA activity. In addition to the effect on SERT and DAT, the compound of formula (Ia) inhibited the transporter of Norepinephrine (NET), and several neurotransmitter's receptors like alpha2A and alpha2C receptors, alpha 1A and alphal C, 5HT2A and 5HT2C, signal histamine2 and dopamine D1. This specific profile is in line with the data on antidepressant, anxiolytic and moderate neuro-stimulation activity observed in the animal model studies.
(§2) With regard to the data provided in Table 1, the biochemical assay results are presented as the percent inhibition of specific binding or activity throughout the report. For primary assays, only the lowest concentration with a significant response judged by the assays’ criteria, is shown in this summary. […] Unless otherwise requested, primary screening in duplicate with quantitative data (e.g., IC50±SEM, Ki±SEM and nH) are shown.

[2] = molecular target: T1, Adrenergic α2c (Homo sapiens, UniProt P18825); experiment: Radioligand binding assay, Adrenergic α2c
T1 construct: 203800
T1 sequence (P18825 1-462): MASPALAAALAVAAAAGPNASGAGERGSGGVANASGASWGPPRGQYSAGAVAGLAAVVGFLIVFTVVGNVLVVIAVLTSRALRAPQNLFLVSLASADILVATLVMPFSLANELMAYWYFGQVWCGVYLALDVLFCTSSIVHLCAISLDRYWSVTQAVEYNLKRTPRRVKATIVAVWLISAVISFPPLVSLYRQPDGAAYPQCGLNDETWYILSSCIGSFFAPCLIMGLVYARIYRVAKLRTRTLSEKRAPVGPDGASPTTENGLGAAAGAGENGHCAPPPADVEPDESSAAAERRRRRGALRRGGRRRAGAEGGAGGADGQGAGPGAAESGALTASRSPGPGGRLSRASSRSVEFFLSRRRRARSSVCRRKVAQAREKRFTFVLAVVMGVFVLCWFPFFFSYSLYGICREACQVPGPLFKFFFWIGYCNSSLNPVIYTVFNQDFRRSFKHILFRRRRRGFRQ
Description: as §1, §2

[3] = molecular target: Histamine H2 (Homo sapiens, UniProt P25021); experiment: Radioligand binding assay, Histamine H2
Chain of Histamine H2 (P25021 whole entry): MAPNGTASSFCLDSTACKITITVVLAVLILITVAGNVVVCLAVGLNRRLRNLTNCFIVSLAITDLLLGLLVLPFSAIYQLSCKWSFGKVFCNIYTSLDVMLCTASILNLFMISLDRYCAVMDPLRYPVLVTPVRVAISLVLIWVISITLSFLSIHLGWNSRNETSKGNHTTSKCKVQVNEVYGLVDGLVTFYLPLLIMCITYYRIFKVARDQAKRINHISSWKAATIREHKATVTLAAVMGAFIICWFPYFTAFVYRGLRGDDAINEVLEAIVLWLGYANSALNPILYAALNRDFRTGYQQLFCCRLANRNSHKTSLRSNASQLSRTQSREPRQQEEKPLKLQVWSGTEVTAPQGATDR
Description: as §1, §2

[4] = molecular target: T2, Serotonin (5-Hydroxytryptamine) 5-HT2C (Homo sapiens, UniProt P28335); experiment: Radioligand binding assay, 5-HT2C
T2 sequence (P28335 33-458): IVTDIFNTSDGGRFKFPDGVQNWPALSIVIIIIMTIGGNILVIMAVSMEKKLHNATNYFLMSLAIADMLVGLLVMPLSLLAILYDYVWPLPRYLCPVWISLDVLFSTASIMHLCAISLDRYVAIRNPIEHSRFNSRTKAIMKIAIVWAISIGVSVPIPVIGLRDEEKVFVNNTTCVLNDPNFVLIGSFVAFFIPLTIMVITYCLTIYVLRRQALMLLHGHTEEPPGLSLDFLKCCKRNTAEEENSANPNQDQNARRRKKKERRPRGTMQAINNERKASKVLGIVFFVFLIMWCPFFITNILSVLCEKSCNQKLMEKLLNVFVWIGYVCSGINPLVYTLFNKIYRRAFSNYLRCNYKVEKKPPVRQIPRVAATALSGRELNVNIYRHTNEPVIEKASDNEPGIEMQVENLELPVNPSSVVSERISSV
Description: as §1, §2

[5] = molecular target: Serotonin (5-Hydroxytryptamine) 5-HT2A (Homo sapiens, UniProt P28223); experiment: Radioligand binding assay, 5-HT2A
Chain of Serotonin (5-Hydroxytryptamine) 5-HT2A (P28223 whole entry): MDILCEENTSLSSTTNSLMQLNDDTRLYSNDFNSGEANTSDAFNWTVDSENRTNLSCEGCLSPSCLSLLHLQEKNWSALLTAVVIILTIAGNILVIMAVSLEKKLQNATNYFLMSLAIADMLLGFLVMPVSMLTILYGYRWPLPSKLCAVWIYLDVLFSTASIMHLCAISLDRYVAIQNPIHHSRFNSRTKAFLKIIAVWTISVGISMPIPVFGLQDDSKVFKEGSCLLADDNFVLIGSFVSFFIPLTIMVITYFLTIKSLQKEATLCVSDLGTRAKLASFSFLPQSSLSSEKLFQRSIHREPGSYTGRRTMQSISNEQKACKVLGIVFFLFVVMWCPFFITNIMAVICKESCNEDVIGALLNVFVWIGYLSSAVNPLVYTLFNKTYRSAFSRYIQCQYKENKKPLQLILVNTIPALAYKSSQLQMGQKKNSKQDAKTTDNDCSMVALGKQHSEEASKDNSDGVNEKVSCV
Description: as §1, §2

[6] = tested on: BALB/c mice; experiment: Elevated plus maze; details: 10 mg/kg (equimolar) ip 1 hr prior
Description: The apparatus is made of wood and painted black, with two opposing open arms and two opposite enclosed arms of the same size. The arms are attached to a central square shaped in a plus sign. The whole apparatus is placed 50 cm above the floor. Anxious animals refrain from entry to the open arm and prefer the closed arm.
The data is presented as the mean±SEM of 12 animals.

[7] = molecular target: Dopamine D1 (Homo sapiens, UniProt P21728); experiment: Radioligand binding assay, Dopamine D1
Chain of Dopamine D1 (P21728 whole entry): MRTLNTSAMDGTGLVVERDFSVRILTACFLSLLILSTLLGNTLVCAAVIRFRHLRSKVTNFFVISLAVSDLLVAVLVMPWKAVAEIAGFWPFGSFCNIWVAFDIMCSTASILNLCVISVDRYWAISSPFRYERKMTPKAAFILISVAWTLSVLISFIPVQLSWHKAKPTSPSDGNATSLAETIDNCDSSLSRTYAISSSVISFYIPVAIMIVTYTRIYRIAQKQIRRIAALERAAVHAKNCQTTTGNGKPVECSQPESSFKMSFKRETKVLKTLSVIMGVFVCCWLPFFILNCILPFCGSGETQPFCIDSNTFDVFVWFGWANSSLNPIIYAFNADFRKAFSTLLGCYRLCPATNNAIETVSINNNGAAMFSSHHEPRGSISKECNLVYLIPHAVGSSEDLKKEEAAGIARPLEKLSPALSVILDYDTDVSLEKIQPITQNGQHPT
Description: as §1, §2

[8] = molecular target: T3, Adrenergic α2A (Homo sapiens, UniProt P08913); experiment: Radioligand binding assay, Adrenergic α2A
T3 construct: 203620
T3 sequence (P08913 1-465): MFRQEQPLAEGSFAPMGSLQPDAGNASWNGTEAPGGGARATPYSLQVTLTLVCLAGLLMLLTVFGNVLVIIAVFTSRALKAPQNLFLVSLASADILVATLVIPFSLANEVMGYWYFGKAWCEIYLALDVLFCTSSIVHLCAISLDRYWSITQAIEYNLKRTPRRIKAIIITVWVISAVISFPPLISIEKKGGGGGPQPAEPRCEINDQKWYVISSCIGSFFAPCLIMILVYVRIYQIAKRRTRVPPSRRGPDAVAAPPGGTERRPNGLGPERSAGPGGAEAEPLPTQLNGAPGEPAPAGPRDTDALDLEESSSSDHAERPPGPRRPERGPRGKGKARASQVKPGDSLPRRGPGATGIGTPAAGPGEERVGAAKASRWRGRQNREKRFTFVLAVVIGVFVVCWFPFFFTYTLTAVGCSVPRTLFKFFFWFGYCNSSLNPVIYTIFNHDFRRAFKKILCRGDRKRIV
Description: as §1, §2

[9] = molecular target: Trasnporter, Dopamine (DAT) (Homo sapiens, UniProt Q01959); experiment: Radioligand binding assay, Dopamine transporter
Chain of Trasnporter, Dopamine (DAT) (Q01959 whole entry): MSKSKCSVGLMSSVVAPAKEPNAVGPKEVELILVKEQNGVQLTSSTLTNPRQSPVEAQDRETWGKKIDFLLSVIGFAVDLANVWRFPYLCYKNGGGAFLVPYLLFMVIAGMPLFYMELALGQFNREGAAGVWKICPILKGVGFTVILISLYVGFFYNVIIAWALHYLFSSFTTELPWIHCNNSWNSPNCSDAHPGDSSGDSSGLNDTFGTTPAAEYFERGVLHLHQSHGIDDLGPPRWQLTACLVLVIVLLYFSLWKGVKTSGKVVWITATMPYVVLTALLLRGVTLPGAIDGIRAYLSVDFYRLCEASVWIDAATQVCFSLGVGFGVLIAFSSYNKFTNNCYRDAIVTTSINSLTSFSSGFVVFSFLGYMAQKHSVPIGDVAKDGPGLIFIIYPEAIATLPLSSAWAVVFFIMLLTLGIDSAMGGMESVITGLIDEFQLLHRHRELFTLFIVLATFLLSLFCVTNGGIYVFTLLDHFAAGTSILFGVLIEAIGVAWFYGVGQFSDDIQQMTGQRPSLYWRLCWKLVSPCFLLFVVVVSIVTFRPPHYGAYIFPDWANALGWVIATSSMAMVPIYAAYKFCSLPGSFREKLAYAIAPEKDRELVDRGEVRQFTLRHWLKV
Description: as §2

[10] = molecular target: Sigma σ1 (Homo sapiens, UniProt Q99720); experiment: Radioligand binding assay, Sigma σ1
Chain of Sigma σ1 (Q99720 whole entry): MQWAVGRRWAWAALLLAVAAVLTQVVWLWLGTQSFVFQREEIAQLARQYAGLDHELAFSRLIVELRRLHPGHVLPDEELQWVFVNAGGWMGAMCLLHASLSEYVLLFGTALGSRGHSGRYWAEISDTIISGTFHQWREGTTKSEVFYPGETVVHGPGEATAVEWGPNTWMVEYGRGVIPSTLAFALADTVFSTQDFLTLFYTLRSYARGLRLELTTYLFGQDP
Description: as §1, §2

[11] = tested on: ICR male mice; experiment: Subchronic ip administration (toxicity); format: in vivo; details: mouse, in vivo, ip, 30 mg/kg
Description: […]. Except for this local irritation no other toxicity was noted.
[…]. […] Except of these local irritations no other toxicity was noted.

[12] = molecular target: Transporter, Serotonin (5-Hydroxytryptamine) (SERT) (Homo sapiens, UniProt P31645); experiment: Radioligand binding assay, Serotonin transporter
Chain of Transporter, Serotonin (5-Hydroxytryptamine) (SERT) (P31645 whole entry): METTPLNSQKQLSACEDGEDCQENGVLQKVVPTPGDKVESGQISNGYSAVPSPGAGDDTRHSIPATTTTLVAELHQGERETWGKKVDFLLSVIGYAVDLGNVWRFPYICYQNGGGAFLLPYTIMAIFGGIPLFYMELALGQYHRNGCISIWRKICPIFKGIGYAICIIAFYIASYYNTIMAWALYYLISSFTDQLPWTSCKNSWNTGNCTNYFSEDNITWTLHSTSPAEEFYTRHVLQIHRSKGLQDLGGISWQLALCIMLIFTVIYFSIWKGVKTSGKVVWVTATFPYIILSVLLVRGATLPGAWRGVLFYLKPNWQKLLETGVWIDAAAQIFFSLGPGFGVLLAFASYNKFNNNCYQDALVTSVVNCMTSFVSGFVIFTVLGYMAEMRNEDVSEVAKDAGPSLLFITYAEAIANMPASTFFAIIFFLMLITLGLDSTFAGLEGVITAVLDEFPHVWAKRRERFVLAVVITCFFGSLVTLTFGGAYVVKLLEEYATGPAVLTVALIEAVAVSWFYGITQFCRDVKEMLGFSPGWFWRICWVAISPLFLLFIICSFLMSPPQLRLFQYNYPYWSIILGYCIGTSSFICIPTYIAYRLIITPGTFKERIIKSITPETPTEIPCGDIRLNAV
Description: as §2

Chain of Transporter, Norepinephrine (NET) (P23975 whole entry): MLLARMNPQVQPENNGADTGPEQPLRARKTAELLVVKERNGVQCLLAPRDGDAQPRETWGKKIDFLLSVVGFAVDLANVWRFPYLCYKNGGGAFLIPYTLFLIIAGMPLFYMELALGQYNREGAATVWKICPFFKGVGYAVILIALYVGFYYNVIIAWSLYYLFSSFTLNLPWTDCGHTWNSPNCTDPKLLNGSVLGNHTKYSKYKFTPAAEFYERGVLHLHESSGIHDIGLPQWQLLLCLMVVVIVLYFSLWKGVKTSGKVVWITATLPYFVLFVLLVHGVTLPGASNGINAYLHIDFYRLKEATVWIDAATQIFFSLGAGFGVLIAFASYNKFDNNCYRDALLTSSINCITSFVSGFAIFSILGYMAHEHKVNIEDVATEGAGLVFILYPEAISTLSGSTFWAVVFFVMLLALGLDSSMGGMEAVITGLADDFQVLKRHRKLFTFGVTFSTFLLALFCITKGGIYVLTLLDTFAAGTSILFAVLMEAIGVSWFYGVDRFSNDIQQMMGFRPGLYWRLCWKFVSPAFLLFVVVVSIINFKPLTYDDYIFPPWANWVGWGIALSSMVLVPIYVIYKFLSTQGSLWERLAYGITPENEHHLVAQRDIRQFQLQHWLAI

CN[C@H]1CC[C@@H](c2ccc(Cl)c(Cl)c2)c2ccc(C#CCCCO)cc21 [compound Ia, (1S-cis)-4-(3,4-dichlorophenyl)-7-(5-hydroxy-1-pentyn-1-yl)-1,2,3,4-tetrahydro-N-methyl-1-naphthalenamine hydroiodide]
IC50 [1]: 623 nM | nH [1]: 0.977 | inhibition at 1 µM ([1]; 1 μM): 62% | Ki ([1]; read-out: K1): 618 nM | IC50 [2]: 1900 nM | nH [2]: 1.03 | inhibition at 3 µM ([2]; 3 μM): 62% | Ki ([2]; read-out: K1): 276 nM | IC50 [3]: 1560 nM | nH [3]: 1.37 | inhibition at 3 µM ([3]; 3 μM): 70% | Ki ([3]; read-out: K1): 1280 nM | IC50 [4]: 9160 nM | nH [4]: 2.15 | inhibition at 10 µM ([4]; read-out: % INH.): 54% | Ki ([4]; read-out: K1): 4800 nM | IC50 [5]: 3370 nM | nH [5]: 1.06 | inhibition at 10 µM ([5]; read-out: % INH.): 81% | Ki ([5]; read-out: K1): 965 nM | anti-anxiety effect [6]: significant anti-anxiety effect | IC50 [7]: 2700 nM | nH [7]: 1.25 | inhibition at 10 µM ([7]; 10 μM): 84% | Ki ([7]; read-out: K1): 1350 nM | IC50 [8]: 273 nM | nH [8]: 0.930 | inhibition at 1 µM ([8]; 1 μM): 82% | Ki ([8]; read-out: K1): 102 nM | IC50 [9]: < 300 nM | inhibition at 0.03 µM ([9]; 0.03 μM): 51% | Ki ([9]; read-out: DAT final Ki): 29 nM | IC50 [10]: 837 nM | nH [10]: 0.627 | inhibition at 3 µM ([10]; 3 μM): 69% | Ki ([10]; read-out: K1): 352 nM | histopathology of heart, spleen, liver and kidney [11]: minimal to mild irritation | IC50 [12]: < 300 nM | inhibition at 0.03 µM ([12]; 0.03 μM): 86% | Ki ([12]; read-out: SERT final Ki): 1.09 nM

— patent US20100130549A1, “PSYCHOTROPIC COMPOUNDS, COMPOSITIONS AND METHODS OF USE” (priority 2007, published 2010)
